Experiments:
[1] = biological target: T1, human cloned 5-HT2B receptors (Homo sapiens, UniProt P41595); assay: Human cloned 5-HT2B receptor binding assay ([3H]LSD, CHO-K1 membranes); conditions: displacement of [3H]LSD (1 nM), read-out: 5-HT2B pKi (converted)
T1 construct: expressed in transfected cells; host or cells: CHO-K1 cells
Procedure: The binding affinity of the compounds for human cloned 5-HT2B receptors was determined using the following assay.
CHO-K1 cells expressing cloned 5-HT2B receptor were maintained in Ultra-CHO medium containing 400 μg/ml of G418, 100 U/ml penicillin, 100 μg/ml streptomycin, 2.5 μg/ml fungizone and 1% foetal bovine serum, in 95/5% O2/CO2 at 37° C. The cells were harvested using 0.25% trypsin and were centrifuged at 800 rpm for 8 minutes. The cells were homogenised in 50 mM HEPES buffer containing 1 mM disodium EDTA and 1 mM PMSF at pH 7.4, using a Dounce homogeniser (20 strokes). The homogenate was centrifuged at 2280 rpm (1000 g) and 4° C. for 10 minutes, after which the supernatant was removed by decanting. The pellet was re-homogenised as above, and the resulting supernatant removed and combined with that already obtained. The supernatant solution was then centrifuged at 18300 rpm (40000 g) for 10 minutes at 4° C. using a Sorvall centrifuge. The supernatant was removed, and the pellet was re-suspended in 50 mM buffer at pH 7.4 using a Ultra-turrax T25 Polytron, before centrifugation again at 40000 g as above. This wash procedure was repeated, after which the membrane preparation was stored at a concentration of 1 mg/ml at −80° C. until use.
The membranes were thawed rapidly and diluted in assay buffer containing Tris-HCl (50 mM, pH 7.4), ascorbic acid (0.1%) and calcium chloride (4 mM). The membranes were homogenised to resuspend them, prior to adding 10 or 15 μg of membranes to assay wells containing [^3H]LSD (1 nM), assay buffer (50 mM Tris, 4 mM calcium chloride and 0.1% ascorbic acid) containing pargyline (10 μM), and the test compounds (1×10^−10 to 1×10^−4M). Non specific binding was determined in the presence of 100 μM 5-HT. After 30 minutes incubation at 37° C., the assay mixture was filtered through a combination of GF-C and GF-B filters, pre-soaked in 1% polyethyleneimine, using a Brandel cell harvester, and were washed three times using 50 mM Tris-HCl. Radioactivity retained on the filters was determined by liquid scintillation counting. For each test compound, the concentration that inhibited binding of [3H]LSD by 50% was determined using curve fitting software (Prism). Kd values (concentration of LSD required to occupy 50% of the receptor binding sites at equilibrium) determined from saturation binding studies were then used to calculate inhibition dissociation constants (Ki) using the following equation: […]
This approach follows that set out in Kenakin, T.P. Pharmacologic analysis of drug-receptor interaction. Raven Press, New York, 2nd Edition.

[2] = biological target: T1, human cloned 5-HT2B receptors; assay: Human cloned 5-HT2B cell-based functional assay (Fluo-4, CHO.K1 cells); conditions: inhibition of 5-HT response, CHO.K1 cells expressing cloned 5-HT2B, Fluo-4 AM
Procedure: The following describes an in vitro functional assay using human cloned 5-HT2B receptors to determine the ability of compounds to block the receptor. CHO.K1 cells expressing cloned 5-HT2B receptor were maintained In Ultra-CHO medium containing 400 μg/ml of G418, 100 U/ml penicillin, 100 μg/ml streptomycin, 2.5 μg/ml fungizone, in 95/5% O2/CO2 at 37° C. Ultra-CHO medium additionally supplemented with 1% foetal bovine serum was used when seeding the cells and removed after 5 hours. Cells were plated in Costar 96 well white, clear-bottomed plate at a density of 50,000 cells per well and incubated for at least 24 hours in 95/5% O2/CO2 at 37° C. before running the assay. Media was removed from the wells and 200 μl of 4 μM Fluo-4 AM added, this was incubated in a Wallace Victor 2V workstation at 37° C. for 30 minutes. The Fluo-4 AM was then removed from the wells, which were then washed twice with 200 μl of buffer (HBSS without calcium/magnesium/phenol red, 20 mM HEPES, 1 mM Ca^2+, 1 mM Mg^2+, 2.5 mM probenecid, pH to 7.4), 180 μl of buffer or test compound was added to the well and incubated for 30 minutes. The Victor 2V injectors were used to inject 20 μl of 5-HT after obtaining 10 0.1-second baseline readings at 535 nm, followed by 150 readings. All test compounds were aliquoted in 100% DMSO at 10 mM and diluted to 1 mM in 50% DMSO, subsequent dilutions were made using buffer. Buffer was also used to dilute the 5-HT. Data were analysed using Microsoft Excel and GraphPad Prism, with the latter used to produce sigmoidal dose-response curves for each compound. The compound concentration that inhibited the 5-HT response by 50% was taken (IC50-M), and the results are shown in Table 3, as pIC50, being the negative log (to the base 10) of the measured IC50 values.

T1 sequence (P41595 whole entry): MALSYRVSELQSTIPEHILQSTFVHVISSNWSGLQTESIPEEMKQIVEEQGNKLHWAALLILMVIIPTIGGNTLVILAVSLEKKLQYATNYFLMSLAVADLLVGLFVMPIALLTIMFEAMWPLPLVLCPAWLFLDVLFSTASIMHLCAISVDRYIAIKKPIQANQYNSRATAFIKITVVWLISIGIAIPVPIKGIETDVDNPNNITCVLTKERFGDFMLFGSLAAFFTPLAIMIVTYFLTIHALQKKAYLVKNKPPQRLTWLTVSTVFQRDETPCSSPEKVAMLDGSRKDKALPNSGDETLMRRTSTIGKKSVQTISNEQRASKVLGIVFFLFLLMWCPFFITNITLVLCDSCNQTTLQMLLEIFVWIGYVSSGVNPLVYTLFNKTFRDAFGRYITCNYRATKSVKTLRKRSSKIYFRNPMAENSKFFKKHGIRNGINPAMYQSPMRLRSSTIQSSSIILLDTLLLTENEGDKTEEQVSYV

Structure (SMILES) | Ki [1] [nM] | IC50 [2] [nM]
Nc1nc(-c2cccc3ccccc23)co1 [Compound 1, 2-amino-4-(naphth-1-yl)oxazole] | < 100 | < 100
Cc1ccc2ccccc2c1-c1coc(N)n1 [Compound 6, 2-amino-4-(2′-methylnaphth-1-yl)oxazole] | < 10 | < 100
CC(C)c1nc(N)oc1-c1cccc2ccccc12 [Compound 7, 2-amino-4-isopropyl-5-(naphth-1-yl)oxazole] | < 10 | < 10
COc1ccc2ccccc2c1-c1coc(N)n1 [Compound 17, 4-(2-methoxy-naphthalen-1-yl)-oxazol-2-ylamine] | < 10 | < 10
CC(C)c1nc(N)oc1-c1ccc(F)c2ccccc12 [Compound 31, 2-amino-5-(4′-fluoronaphth-1-yl)-4-isopropyloxazole] | < 10 | < 10
